# In patent US20250177351A1, “ISOINDOLINE COMPOSITIONS AND METHODS FOR TREATING NEURODEGENERATIVE DISEASE” (Cognition Therapeutics, Inc., priority 2022, published 2025):
# Entries after “also recorded” stand apart in the source; their conditions may differ. Marks after values point to notes of the source that are not given here.
# Legend:
# [1] = biological target: T1, Sigma-2/PGRMC1 receptor complex (Homo sapiens, UniProt Q5BJF2); assay: Phase 1b/2a trial: pharmacokinetics and estimated brain receptor occupancy; type: in vivo; conditions: AD patients, 90-560 mg, day 28
# T1 construct: from tissue; host or cells: brain of trial patients, in vivo (occupancy estimated from CSF drug concentration, not measured)
# Procedure: (§1) COG0102 clinical trial: This trial (ClinicalTrials.gov NCT02907567) was a randomized, double-blind, placebo-controlled clinical trial in mild to moderate Alzheimer's patients (MMSE 18-26) (See FIG. 1 for clinical trial design). The trial was conducted at six sites in Australia. Patients were randomized into placebo (n=5) or CT1812-treated groups: 90 mg (n=4), 280 mg (n=5) or 560 mg (n=5) and treated once daily for 28 days. Clinical chemistry was done at Sydpath (Sydney, AU). Pharmacokinetics were done at CPR Pharma Services (Adelaide, AU). Cerebrospinal fluid samples were taken at screening and day 21-28 of treatment and aliquoted. […] One set of CSF samples was analyzed for Alzheimer's disease biomarkers; protein measurements (Aβ42, Aβ40, total tau, tau phosphorylated at threonine 181 (phosphorylated tau), NFL and neurogranin) were performed using commercially available ELISA assays from Fujirebio according to the manufacturer's instructions (INNOTEST β-AMYLOID(1-42), INNOTEST β-AMYLOID(1-40), INNOTEST hTau Ag, INNOTEST PHOSPHO-TAU(181P), Uman Diagnostics NFL assay). Neurogranin was measured with a sandwich ELISA method using antibodies Ng2 and Ng22 developed at the University of Gotteborg (Kvartsberg et al. 2015). Identical aliquots of CSF, and plasma were analyzed for protein expression changes via LC/MSMS at Caprion (see below).
# [2] = system: CSF biomarkers (Aβ42, Aβ40, total tau, phosphorylated tau, NFL and neurogranin); assay: Phase 1b/2a trial: CSF Alzheimer's disease biomarkers by ELISA; type: in vivo, human; conditions: AD patients, before and after treatment
# Procedure: as §1
# CYP isoenzymes = assay: Drug interaction studies
# [3] = Phase 1b/2a clinical trial (COG0102): safety, tolerability, exploratory cognitive outcomes; type: in vivo, human
# Procedure: Safety and pharmacokinetics were primary objectives of the study, with changes in molecular biomarkers and cognitive outcomes identified as an exploratory objective.
# Plasma and CSF protein expression were measured by LC/MSMS in samples drawn prior to dosing (Day 0) and at end of dosing (Day 28) and were compared within each patient and between dosing groups.
# COG0102 clinical trial: This trial (ClinicalTrials.gov NCT02907567) was a randomized, double-blind, placebo-controlled clinical trial in mild to moderate Alzheimer's patients (MMSE 18-26) (See FIG. 1 for clinical trial design). The trial was conducted at six sites in Australia. Patients were randomized into placebo (n=5) or CT1812-treated groups: 90 mg (n=4), 280 mg (n=5) or 560 mg (n=5) and treated once daily for 28 days. Clinical chemistry was done at Sydpath (Sydney, AU). Pharmacokinetics were done at CPR Pharma Services (Adelaide, AU). Cerebrospinal fluid samples were taken at screening and day 21-28 of treatment and aliquoted. Plasma samples were taken at screening or Day 1 (one sample) and day 14-28, then spun down to separate plasma and aliquoted. One set of CSF samples was analyzed for Alzheimer's disease biomarkers; protein measurements (Aβ42, Aβ40, total tau, tau phosphorylated at threonine 181 (phosphorylated tau), NFL and neurogranin) were performed using commercially available ELISA assays from Fujirebio according to the manufacturer's instructions (INNOTEST β-AMYLOID(1-42), INNOTEST β-AMYLOID(1-40), INNOTEST hTau Ag, INNOTEST PHOSPHO-TAU(181P), Uman Diagnostics NFL assay). Neurogranin was measured with a sandwich ELISA method using antibodies Ng2 and Ng22 developed at the University of Gotteborg (Kvartsberg et al. 2015). Identical aliquots of CSF, and plasma were analyzed for protein expression changes via LC/MSMS at Caprion (see below).
# [4] = AD patients, 28 days, 90 mg (as in Table 3)
# [5] = AD patients, 28 days, 90 mg (n = 4)
# [6] = AD patients, 28 days, 280 mg (as in Table 3)
# [7] = AD patients, 28 days, 280 mg (n = 5)
# [8] = AD patients, 28 days, 560 mg (as in Table 3)
# [9] = AD patients, 28 days, 560 mg (n = 5)
# T1 sequence (Q5BJF2 whole entry, one chain of several): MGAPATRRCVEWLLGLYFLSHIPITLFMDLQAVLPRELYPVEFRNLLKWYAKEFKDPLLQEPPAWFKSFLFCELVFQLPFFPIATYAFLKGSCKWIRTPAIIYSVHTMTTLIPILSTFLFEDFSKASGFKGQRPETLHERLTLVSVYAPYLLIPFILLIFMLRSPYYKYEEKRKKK
smiles,measurement,setting,value
CC(C)(C)Oc1cc(CCC(C)(C)N2Cc3ccc(S(C)(=O)=O)cc3C2)ccc1O [CT1812],increase of plasma concentration with dose,[1],approximately dose proportionally
same,"biomarker levels (Aβ, tau, NFL) in CSF",[2],remain unchanged
same,interactions with CYP isoenzymes,CYP isoenzymes,minor interactions
same,patients with lymphocytopenia,"[3]; AD patients, 560 mg, 3 mild, resolved by end of study",Four
same,ALT in one participant,"[3]; AD patients, 560 mg, resolved by end of study, no increase in bilirubin",~4.7 ×ULN
same,tolerability,"[3]; AD patients, 90, 280 and 560 mg, 28 days",well tolerated with no drug-related significant adverse events reported; also recorded: generally safe and well tolerated at all doses
same,Headache,[3]; [4],1 (25%) n (%)
same,Lymphocytopenia,[3]; [4],0 (0%) n (%)
same,Nausea,[3]; [4],0 (0%) n (%)
same,Vomiting,[3]; [4],0 (0%) n (%)
same,Mild TEAEs,[3]; [5],4 (100%) n (%)
same,Moderate TEAEs,[3]; [5],0 (0%) n (%)
same,SAEs,[3]; [5],0 (0%) n (%)
same,Severe TEAEs,[3]; [5],0 (0%) n (%)
same,TEAEs,[3]; [5],3 (75%) n (%)
same,Headache,[3]; [6],0 (0%) n (%)
same,Lymphocytopenia,[3]; [6],0 (0%) n (%)
same,Nausea,[3]; [6],0 (0%) n (%)
same,Vomiting,[3]; [6],0 (0%) n (%)
same,Mild TEAEs,[3]; [7],3 (60%) n (%)
same,Moderate TEAEs,[3]; [7],1 (20%) n (%)
same,SAEs,[3]; [7],0 (0%) n (%)
same,Severe TEAEs,[3]; [7],0 (0%) n (%)
same,TEAEs,[3]; [7],4 (80%) n (%)
same,Headache,[3]; [8],2 (40%) n (%)
same,Lymphocytopenia,[3]; [8],3 (60%)* n (%)
same,Nausea,[3]; [8],2 (40%) n (%)
same,Vomiting,[3]; [8],2 (40%) n (%)
same,Mild TEAEs,[3]; [9],5 (100%) n (%)
same,Moderate TEAEs,[3]; [9],3 (60%) n (%)
same,SAEs,[3]; [9],0 (0%) n (%)
same,Severe TEAEs,[3]; [9],0 (0%) n (%)
same,TEAEs,[3]; [9],5 (100%) n (%)
